# Experimental data as given in ChEMBL document CHEMBL4346741, “Synthesis, pharmacological evaluation, and mechanistic study of adefovir mixed phosphonate derivatives bearing cholic acid and l-amino acid moieties for the treatment of HBV” (Bioorg Med Chem, 2019).
# Assays:
# [1] = target: T1, OAT1 (solute carrier family 22 member 6) (Homo sapiens, UniProt Q4U2R8); test: Safety index, ratio of Adefovir dipivoxil IC50 to compound IC50 for human OAT1 expressed in HEK293 cells; assay type: ADME, cell-based; conditions: read-out: Ratio IC50
# T1 sequence (Q4U2R8 whole entry): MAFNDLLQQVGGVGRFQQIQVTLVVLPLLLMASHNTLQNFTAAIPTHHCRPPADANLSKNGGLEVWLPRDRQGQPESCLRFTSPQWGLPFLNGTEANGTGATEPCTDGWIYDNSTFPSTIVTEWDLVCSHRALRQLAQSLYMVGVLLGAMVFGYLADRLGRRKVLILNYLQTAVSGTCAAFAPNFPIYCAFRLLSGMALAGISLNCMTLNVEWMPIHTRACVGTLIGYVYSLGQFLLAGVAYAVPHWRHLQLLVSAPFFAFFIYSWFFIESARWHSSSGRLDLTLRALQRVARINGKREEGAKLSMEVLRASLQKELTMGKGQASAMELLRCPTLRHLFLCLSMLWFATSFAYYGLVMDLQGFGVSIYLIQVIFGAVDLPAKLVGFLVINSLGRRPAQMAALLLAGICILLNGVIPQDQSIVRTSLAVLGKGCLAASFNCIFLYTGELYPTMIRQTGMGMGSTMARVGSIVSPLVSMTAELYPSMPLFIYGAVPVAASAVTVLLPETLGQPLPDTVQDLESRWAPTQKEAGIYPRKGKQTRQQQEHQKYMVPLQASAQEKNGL
# HK-2 [2] = test: Nephrotoxicity in human HK2 cells assessed as decrease in cell apoptosis at 25 to 100 uM measured after 72 hrs by Hoechst 33342 staining based fluorescence assay relative to ADV; assay type: toxicity; parameters: scale not given: the % may be the effect or the level left; conditions: hk-2, 72 h
# [3] = Drug distribution in mouse liver at 5.47 mg/kg, po measured at 24 hrs by LC-MS/MS analysis; assay type: ADME, organism-based; conditions: read-out: Drug uptake
# [4] = Potency index, ratio of ADV drug concentration to compound concentration in mouse liver measured at 60 mins; assay type: ADME, tissue-based; conditions: in vivo, 1 h
# HK-2 [5] = test: Cytotoxicity against human HK2 cells assessed as cell viability at 25 to 100 uM after 72 hrs by MTT assay relative to control; assay type: cell-based; conditions: hk-2, 72 h
# HEK293 [6] = test: Cytotoxicity against human HEK293 cells expressing OAT1 assessed as reduction in cell viability after 1 hr by MTT assay; assay type: ADME, cell-based; conditions: hek293, 1 h
# [7] = Selectivity index, ratio of CC50 for cytotoxicity against human HepG2.2.15 cells to EC50 for HBV infected in human HepG2.2.15 cells; assay type: toxicity, cell-based; conditions: read-out: Ratio CC50/EC50
# [8] = Potency index, ratio of ADV drug concentration to compound concentration in mouse liver measured at 24 hrs; assay type: ADME, tissue-based; conditions: in vivo
# HEK293 [9] = test: Substrate activity in human HEK293 cells harboring pEGFP-N1 empty vector assessed as compound uptake measured at 5 to 40 mins by UPLC-MS/MS method; assay type: ADME, cell-based
# HK-2 [10] = test: Induction of apoptosis in human HK2 cells assessed as presence of apoptotic bodies at 25 to 100 uM measured after 72 hrs by Hoechst 33342 staining based fluorescence assay; assay type: cell-based; conditions: hk-2, 72 h
# [11] = Potency index, ratio of ADV drug concentration to compound concentration in mouse liver measured at 6 hrs; assay type: ADME, tissue-based; conditions: in vivo
# HK-2 [12] = test: Induction of apoptosis in human HK2 cells assessed as increase in Bax/Bcl2 ratio at 25 to 100 uM after 72 hrs by Western blot analysis; assay type: cell-based; conditions: hk-2, 72 h
# HK-2 [13] = test: Induction of apoptosis in human HK2 cells assessed as nuclear pyknosis at 25 to 100 uM measured after 72 hrs by Hoechst 33342 staining based fluorescence assay; assay type: cell-based; conditions: hk-2, 72 h
# [14] = Volume of distribution in Sprague-Dawley rat at 100 mg/kg, po measured up to 24 hrs by LC-MS/MS analysis; assay type: ADME, organism-based; conditions: in vivo
# HK-2 [15] = test: Induction of apoptosis in human HK2 cells assessed as dense staining at 25 to 100 uM measured after 72 hrs by Hoechst 33342 staining based fluorescence assay; assay type: cell-based; conditions: hk-2, 72 h
# [16] = Drug distribution in mouse liver at 5.47 mg/kg, po measured at 3 hrs by LC-MS/MS analysis; assay type: ADME, organism-based; conditions: read-out: Drug uptake
# HK-2 [17] = test: Induction of apoptosis in human HK2 cells assessed as early apoptotic cells at 100 uM measured after 72 hrs by Annexin V-FITC/propidium iodide staining based flow cytometry (reference value: 8.1%); assay type: cell-based; conditions: hk-2, 72 h
# HEK293 [18] = test: Cytotoxicity against human HEK293 cells harboring pEGFP-N1 empty vector assessed as reduction in cell viability after 1 hr by MTT assay; assay type: cell-based; conditions: hek293, 1 h
# [19] = Drug distribution in mouse liver at 5.47 mg/kg, po measured at 30 mins by LC-MS/MS analysis; assay type: ADME, organism-based; conditions: read-out: Drug uptake
# [20] = Potency index, ratio of ADV drug concentration to compound concentration in mouse liver measured at 30 mins; assay type: ADME, tissue-based; conditions: in vivo, 0.5 h
# [21] = AUC (0 to t) in Sprague-Dawley rat at 100 mg/kg, po measured up to 24 hrs by LC-MS/MS analysis; assay type: ADME, organism-based; parameters: dose 100 mg/kg, time < 24 hr, route oral; conditions: in vivo
# [22] = target: T2, Solute carrier family 22 member 6 (Homo sapiens, UniProt Q4U2R8); test: Substrate activity at human OAT1 expressed in HEK293 cells harboring pEGFP assessed as compound uptake measured after 20 mins by UPLC-MS/MS method; assay type: ADME, cell-based; conditions: hek293, 20 min
# T2 sequence (Q4U2R8 whole entry): T1 sequence (Q4U2R8 whole entry)
# [23] = target: T2, Solute carrier family 22 member 6; test: Inhibition of human OAT1 expressed in HEK293 cells assessed as P-amino hippuric acid uptake inhibition incubated for 10 mins by UPLC-MS/MS method; assay type: ADME, cell-based
# HK-2 [24] = test: Induction of apoptosis in human HK2 cells assessed as induction of cleaved caspase 3 levels at 25 to 100 uM after 72 hrs by Western blot analysis; assay type: cell-based; conditions: hk-2, 72 h
# [25] = Drug distribution in mouse liver at 5.47 mg/kg, po measured at 60 mins by LC-MS/MS analysis; assay type: ADME, organism-based; conditions: read-out: Drug uptake
# HK-2 [26] = test: Induction of apoptosis in human HK2 cells assessed as early apoptotic cells at 25 uM measured after 72 hrs by Annexin V-FITC/propidium iodide staining based flow cytometry (reference value: 8.1%); assay type: cell-based; conditions: hk-2, 72 h
# [27] = Potency index, ratio of ADV drug concentration to compound concentration in mouse liver measured at 3 hrs; assay type: ADME, tissue-based; conditions: in vivo
# [28] = Drug distribution in mouse liver at 5.47 mg/kg, po measured at 6 hrs by LC-MS/MS analysis; assay type: ADME, organism-based; conditions: read-out: Drug uptake
# HK-2 [29] = test: Induction of apoptosis in human HK2 cells assessed as early apoptotic cells at 50 uM measured after 72 hrs by Annexin V-FITC/propidium iodide staining based flow cytometry (reference value: 8.1%); assay type: cell-based; conditions: hk-2, 72 h
# Hepatitis B virus = test: Antiviral activity against Hepatitis B virus infected in human HepG2.2.15 cells assessed as inhibition of viral DNA synthesis incubated for 2 days followed by replacement of fresh medium containing compound and measured at day 10 by RT-PCR analysis; assay type: functional, organism-based
# HK-2 [30] = test: Induction of mitochondrial membrane dysfunction in human HK2 cells assessed as effect mitochondrial membrane potential at 100 uM after 72 hrs by JC-1 staining based flow cytometry; assay type: cell-based; conditions: hk-2, 72 h
# HepG2 2.2.15 = test: Cytotoxicity against human HepG2.2.15 cells assessed as reduction in cell viability incubated for 12 hrs followed by replacement of fresh medium containing compound and measured after 2 days by CCK-8 assay; assay type: functional
compound,measurement,setting,value
CC(C)C[C@@H](N)C(=O)OCCCOP(=O)(COCCn1cnc2c(N)ncnc21)OCCCOC(=O)CC[C@@H](C)[C@H]1CC[C@H]2[C@@H]3[C@@H](O)C[C@@H]4C[C@H](O)CC[C@]4(C)[C@H]3CC[C@]12C (some centres not stated),selectivity ratio,[1],21
same,Activity,HK-2 [2],37.4%
same,concentration at 24 h,[3],695 ng/g
same,Ratio,[4],6.5
same,Activity,HK-2 [5],Non-Toxic
same,Activity,HEK293 [6],Non-Toxic
same,selectivity ratio,[7],1060
same,Ratio,[8],8.8
same,Activity,HEK293 [9],< 60 pmol/min/mg
same,Activity,HK-2 [10],Non-Toxic
same,Ratio,[11],4.8
same,Activity,HK-2 [12],Non-Toxic
same,Activity,HK-2 [13],Non-Toxic
same,Vd,[14],78.716 L/kg
same,Activity,HK-2 [15],Non-Toxic
same,concentration at 3 h,[16],1160 ng/g
same,Activity,HK-2 [17],5.9%
same,Activity,HEK293 [18],Non-Toxic
same,concentration at 0.5 h,[19],305 ng/g
same,Ratio,[20],4.2
same,AUCt,[21],4645.705 µg/L/h
same,Activity,[22],< 60 pmol/min/mg
same,IC50,[23],286 µM
same,Activity,HK-2 [24],Non-Toxic
same,concentration at 1 h,[25],1070 ng/g
same,Activity,HK-2 [26],9.7%
same,Ratio,[27],3.4
same,concentration at 6 h,[28],721 ng/g
same,Activity,HK-2 [29],6.1%
same,EC50,Hepatitis B virus,420 nM
same,Activity,HK-2 [30],Non-Toxic
same,CC50,HepG2 2.2.15,446 µM
